# Literature values in publication PMC8513935.
# Columns and labels:
# [1] = derived by the authors as gas->solvent minus gas->water (a hypothetical dry solvent; the ESI), not a two-phase measurement
# [2] = experimental, compiled by the authors from the literature (the ESI cites the sources)
# [3] = log P octanol/water from commercial databases, averaged (the ESI); conditions: Octanol (wet), 25 C
smiles,measurement,setting,value
CN(C)C,"log K of transfer, water to solvent","[1]; Acetone, 25 C",-0.47 log10 K
same,"log K of transfer, water to solvent","[1]; Benzene, 25 C",-0.3 log10 K
same,"log K of transfer, water to solvent","[1]; Butan-1-ol, 25 C",-0.22 log10 K
same,"log K of transfer, water to solvent","[1]; CCl4, 25 C",-0.23 log10 K
same,"log K of transfer, water to solvent","[1]; Chlorobenzene, 25 C",-0.3 log10 K
same,"log K of transfer, water to solvent","[1]; Chloroform, 25 C",0.51 log10 K
same,"log K of transfer, water to solvent","[1]; Cyclohexane, 25 C",-0.42 log10 K
same,"log K of transfer, water to solvent","[1]; Diethyl Ether, 25 C",-0.62 log10 K
same,"log K of transfer, water to solvent","[1]; Ethanol, 25 C",0.32 log10 K
same,"log K of transfer, water to solvent","[1]; Hexadecane, 25 C",-0.73 log10 K
same,"log K of transfer, water to solvent","[1]; Hexane, 25 C",-0.424 log10 K
same,"log K of transfer, water to solvent","[1]; Octan-1-ol(dry), 25 C",-0.41 log10 K
same,"log K of transfer, water to solvent","[1]; Propan-1-ol, 25 C",0.21 log10 K
same,"log K of transfer, water to solvent","[1]; Toluene, 25 C",-0.36 log10 K
same,"log K of transfer, gas to solvent","[2]; Benzene, 25 C",2.05 log10 K
same,"log K of transfer, gas to solvent","[2]; Butan-1-ol, 25 C",2.13 log10 K
same,"log K of transfer, gas to solvent","[2]; CCl4, 25 C",2.12 log10 K
same,"log K of transfer, gas to solvent","[2]; Chlorobenzene, 25 C",2.05 log10 K
same,"log K of transfer, gas to solvent","[2]; Chloroform, 25 C",2.86 log10 K
same,"log K of transfer, gas to solvent","[2]; Cyclohexane, 25 C",1.93 log10 K
same,"log K of transfer, gas to solvent","[2]; Diethyl Ether, 25 C",1.73 log10 K
same,"log K of transfer, gas to solvent","[2]; Ethanol, 25 C",2.67 log10 K
same,"log K of transfer, gas to solvent","[2]; Hexadecane, 25 C",1.62 log10 K
same,"log K of transfer, gas to solvent","[2]; Hexane, 25 C",1.93 log10 K
same,"log K of transfer, gas to solvent","[2]; Octan-1-ol, 25 C",1.94 log10 K
same,"log K of transfer, gas to solvent","[2]; Propan-1-ol, 25 C",2.56 log10 K
same,"log K of transfer, gas to solvent","[2]; Propanone, 25 C",1.88 log10 K
same,"log K of transfer, gas to solvent","[2]; Toluene, 25 C",1.99 log10 K
same,"log K of transfer, gas to solvent","[2]; Water, 25 C",2.35 log10 K
same,"log K of transfer, water to solvent",[3],0.19 log10 K
O=C1CCCCC1,"log K of transfer, water to solvent","[1]; 1,2-Dichloroethane, 25 C",1.37 log10 K
same,"log K of transfer, water to solvent","[1]; CCl4, 25 C",0.97 log10 K
same,"log K of transfer, water to solvent","[1]; Cyclohexanone, 25 C",1.05 log10 K
same,"log K of transfer, water to solvent","[1]; Hexadecane, 25 C",0.192 log10 K
same,"log K of transfer, water to solvent","[1]; Hexane, 25 C",0.05 log10 K
same,"log K of transfer, gas to solvent","[2]; 1,2-Dichloroethane, 25 C",4.97 log10 K
same,"log K of transfer, gas to solvent","[2]; CCl4, 25 C",4.57 log10 K
same,"log K of transfer, gas to solvent","[2]; Cyclohexanone, 25 C",4.65 log10 K
same,"log K of transfer, gas to solvent","[2]; Hexadecane, 25 C",3.79 log10 K
same,"log K of transfer, gas to solvent","[2]; Hexane, 25 C",3.65 log10 K
same,"log K of transfer, gas to solvent","[2]; Water, 25 C",3.6 log10 K
same,"log K of transfer, water to solvent",[3],0.81 log10 K
CCCCCCCC,"log K of transfer, water to solvent","[1]; 1,2-Dichloroethane, 25 C",5.55 log10 K
same,"log K of transfer, water to solvent","[1]; 2-Methylpropan-2-ol, 25 C",5.5 log10 K
same,"log K of transfer, water to solvent","[1]; 3-Methylbutan-1-ol, 25 C",5.51 log10 K
same,"log K of transfer, water to solvent","[1]; Acetone, 25 C",5.34 log10 K
same,"log K of transfer, water to solvent","[1]; Acetonitrile, 25 C",4.79 log10 K
same,"log K of transfer, water to solvent","[1]; Benzene, 25 C",6.03 log10 K
same,"log K of transfer, water to solvent","[1]; Butan-1-ol, 25 C",5.37 log10 K
same,"log K of transfer, water to solvent","[1]; Butanone, 25 C",5.56 log10 K
same,"log K of transfer, water to solvent","[1]; Butyronitrile, 25 C",5.32 log10 K
same,"log K of transfer, water to solvent","[1]; CCl4, 25 C",6.16 log10 K
same,"log K of transfer, water to solvent","[1]; Chlorobenzene, 25 C",6.1 log10 K
same,"log K of transfer, water to solvent","[1]; Chloroform, 25 C",6.01 log10 K
same,"log K of transfer, water to solvent","[1]; Cyclohexane, 25 C",6.18 log10 K
same,"log K of transfer, water to solvent","[1]; Cyclohexanone, 25 C",5.53 log10 K
same,"log K of transfer, water to solvent","[1]; Decan-1-ol, 25 C",5.43 log10 K
same,"log K of transfer, water to solvent","[1]; Di-n-butyl ether, 25 C",5.96 log10 K
same,"log K of transfer, water to solvent","[1]; Dichloromethane, 25 C",5.83 log10 K
same,"log K of transfer, water to solvent","[1]; Diethyl Ether, 25 C",6.03 log10 K
same,"log K of transfer, water to solvent","[1]; Ethanol, 25 C",5.28 log10 K
same,"log K of transfer, water to solvent","[1]; Hexadecane, 25 C",5.78 log10 K
same,"log K of transfer, water to solvent","[1]; Hexane, 25 C",6.08 log10 K
same,"log K of transfer, water to solvent","[1]; Methanol, 25 C",4.93 log10 K
same,"log K of transfer, water to solvent","[1]; Octan-1-ol(dry), 25 C",5.41 log10 K
same,"log K of transfer, water to solvent","[1]; Pentan-1-ol, 25 C",5.5 log10 K
same,"log K of transfer, water to solvent","[1]; Perfluoroalkane, 25 C",4.65 log10 K
same,"log K of transfer, water to solvent","[1]; Propan-1-ol, 25 C",5.28 log10 K
same,"log K of transfer, water to solvent","[1]; Propan-2-ol, 25 C",5.28 log10 K
same,"log K of transfer, water to solvent","[1]; Propionitrile, 25 C",5.16 log10 K
same,"log K of transfer, water to solvent","[1]; Tetrahydrofuran, 25 C",5.96 log10 K
same,"log K of transfer, water to solvent","[1]; Toluene, 25 C",6.05 log10 K
same,"log K of transfer, gas to solvent","[2]; 1,2-Dichloroethane, 25 C",3.44 log10 K
same,"log K of transfer, gas to solvent","[2]; 2-Methylpropan-2-ol, 25 C",3.39 log10 K
same,"log K of transfer, gas to solvent","[2]; 3-Methylbutan-1-ol, 25 C",3.4 log10 K
same,"log K of transfer, gas to solvent","[2]; Acetonitrile, 25 C",2.68 log10 K
same,"log K of transfer, gas to solvent","[2]; Benzene, 25 C",3.92 log10 K
same,"log K of transfer, gas to solvent","[2]; Butan-1-ol, 25 C",3.26 log10 K
same,"log K of transfer, gas to solvent","[2]; Butanone, 25 C",3.45 log10 K
same,"log K of transfer, gas to solvent","[2]; Butyronitrile, 25 C",3.21 log10 K
same,"log K of transfer, gas to solvent","[2]; CCl4, 25 C",4.05 log10 K
same,"log K of transfer, gas to solvent","[2]; Chlorobenzene, 25 C",3.99 log10 K
same,"log K of transfer, gas to solvent","[2]; Chloroform, 25 C",3.9 log10 K
same,"log K of transfer, gas to solvent","[2]; Cyclohexane, 25 C",4.07 log10 K
same,"log K of transfer, gas to solvent","[2]; Cyclohexanone, 25 C",3.42 log10 K
same,"log K of transfer, gas to solvent","[2]; Decan-1-ol, 25 C",3.32 log10 K
same,"log K of transfer, gas to solvent","[2]; Di-n-butyl ether, 25 C",3.85 log10 K
same,"log K of transfer, gas to solvent","[2]; Dichloromethane, 25 C",3.72 log10 K
same,"log K of transfer, gas to solvent","[2]; Diethyl Ether, 25 C",3.92 log10 K
same,"log K of transfer, gas to solvent","[2]; Ethanol, 25 C",3.17 log10 K
same,"log K of transfer, gas to solvent","[2]; Hexadecane, 25 C",3.68 log10 K
same,"log K of transfer, gas to solvent","[2]; Hexane, 25 C",3.97 log10 K
same,"log K of transfer, gas to solvent","[2]; Methanol, 25 C",2.82 log10 K
same,"log K of transfer, gas to solvent","[2]; Octan-1-ol, 25 C",3.3 log10 K
same,"log K of transfer, gas to solvent","[2]; Pentan-1-ol, 25 C",3.39 log10 K
same,"log K of transfer, gas to solvent","[2]; Perfluoroalkane, 25 C",2.54 log10 K
same,"log K of transfer, gas to solvent","[2]; Propan-1-ol, 25 C",3.17 log10 K
same,"log K of transfer, gas to solvent","[2]; Propan-2-ol, 25 C",3.17 log10 K
same,"log K of transfer, gas to solvent","[2]; Propanone, 25 C",3.23 log10 K
same,"log K of transfer, gas to solvent","[2]; Propionitrile, 25 C",3.05 log10 K
same,"log K of transfer, gas to solvent","[2]; Tetrahydrofuran, 25 C",3.85 log10 K
same,"log K of transfer, gas to solvent","[2]; Toluene, 25 C",3.94 log10 K
same,"log K of transfer, gas to solvent","[2]; Water, 25 C",-2.11 log10 K
same,"log K of transfer, water to solvent",[3],5.15 log10 K
